Measured values from ChEMBL document CHEMBL3832761, “MMV Pathogen Box Bioactivity Data” (2017).
≈ marks a conversion by molar mass, not a printed value.

How the values were obtained:
[1] = test system: Mycobacterium tuberculosis; assay: AntiMycobacterium tuberculosis activity 2-week 7H9/DPPC/cholesterol/BSA/Tx MIC (uM); type: functional; settings: 336 h
HepG2 [2] = assay: HepG2 galactose CC50 (uM) Cytotoxicity; type: functional
[3] = test system: Mycobacterium tuberculosis; assay: AntiMycobacterium tuberculosis activity 1-week 7H9/ADC/Tw MIC (uM); type: functional; settings: 168 h
[4] = test system: Mycobacterium tuberculosis; assay: (§1) AntiMycobacterium tuberculosis activity day 10 in 7H9/2.5mM butyrate/pH6/0.1mM nitrite MIC90 (uM); type: functional; settings: 240 h
[5] = test system: Mycobacterium tuberculosis; assay: AntiMycobacterium tuberculosis activity 2-week Alamar Blue 7H9/cholesterol/BSA/Tx MIC (uM); type: functional; settings: 336 h
[6] = test system: Mycobacterium tuberculosis; assay: AntiMycobacterium tuberculosis activity 2-week 7H9/glucose/BSA/Tx MIC (uM); type: functional; settings: 336 h
[7] = test system: Mycobacterium tuberculosis; assay: AntiMycobacterium tuberculosis activity 2-week Alamar Blue 7H9/ADC/Tw MIC (uM); type: functional; settings: 336 h
[8] = test system: Mycobacterium tuberculosis; assay: AntiMycobacterium tuberculosis activity 1-week 7H9/cholesterol/BSA/Tx MIC (uM); type: functional; settings: 168 h
[9] = test system: Mycobacterium tuberculosis; assay: AntiMycobacterium tuberculosis activity 1-week 7H9/glucose/BSA/Tx MIC (uM); type: functional; settings: 168 h
[10] = test system: Mycobacterium tuberculosis; assay: AntiMycobacterium tuberculosis activity day 21 in 7H9/2.5mM butyrate/pH6/0.1mM nitrite MIC90 (uM); type: functional; settings: 504 h
[11] = test system: Mycobacterium tuberculosis; assay: AntiMycobacterium tuberculosis activity 2-week GAST/Fe MIC (uM); type: functional; settings: 336 h
HepG2 [12] = assay: HepG2 glucose CC50 (uM) Cytotoxicity; type: functional
[13] = test system: Mycobacterium tuberculosis; assay: as §1; type: functional; settings: 240 h; remark: listed apart in the source
[14] = test system: Mycobacterium tuberculosis; assay: AntiMycobacterium tuberculosis activity 2-week 7H9/ADC/Tw MIC (uM); type: functional; settings: 336 h
[15] = test system: Mycobacterium tuberculosis; assay: AntiMycobacterium tuberculosis activity 1-week 7H9/DPPC/cholesterol/BSA/Tx MIC (uM); type: functional; settings: 168 h
[16] = test system: Mycobacterium tuberculosis; assay: AntiMycobacterium tuberculosis activity 1-week GAST/Fe MIC (uM); type: functional; settings: 168 h
[17] = test system: Mycobacterium tuberculosis; assay: AntiMycobacterium tuberculosis activity day 21 MIC99 in 7H9/2.5mM butyrate/pH6/0.1mM nitrite MIC99 (uM); type: functional; settings: 504 h
HepG2 [18] = assay: HepG2 inhibition at 10 uM (%) Cytotoxicity; type: functional; settings: Homo sapiens
Plasmodium berghei = assay: Antimalarial activity: Liver Stage Plasmodium berghei sporozoite Luciferase assay: inhibition at 10 uM (%); type: functional
Plasmodium falciparum [19] = assay: Antimalarial activity: Asexual Blood Stage Plasmodium falciparum Dd2 IC50 (uM); type: functional, organism-based
Plasmodium falciparum [20] = assay: Antimalarial activity: Asexual Blood Stage Plasmodium falciparum 3D7 IC50 (uM); type: functional, organism-based
[21] = HL60 CC50 (uM) Cytotoxicity; type: functional; settings: HL-60
Plasmodium falciparum [22] = assay: Antimalarial activity: Asexual Blood Stage Plasmodium falciparum W2 IC50 (uM); type: functional, organism-based
Plasmodium falciparum [23] = assay: Antimalarial activity: Gametocytes Plasmodium falciparum NF54 Gametocytes Stage V: inhibition at 10 uM (%); type: functional
HepG2 [24] = assay: Cytotoxicity data HepG2 CC20 (uM); type: functional

Q: What does the source list for `CC(=O)N1CCc2cc3nc(C)cc(C)c3cc21`?
A: MIC [1]: 25 µM (≈ 6.01 µg/mL); CC50 (HepG2 [2]; Homo sapiens, HepG2): > 50 µM; MIC [3]: > 50 µM; MIC90 [4]: 6.25 µM (≈ 1.5 µg/mL); MIC [5]: 2.3 µM (≈ 0.553 µg/mL); MIC [6]: > 50 µM; MIC [7]: 4.7 µM (≈ 1.13 µg/mL); MIC [8]: 3.13 µM (≈ 0.752 µg/mL); MIC [9]: > 50 µM; MIC90 [10]: 12.5 µM (≈ 3 µg/mL); MIC [11]: 0.39 µM (≈ 0.0937 µg/mL); CC50 (HepG2 [12]; Homo sapiens, HepG2): > 50 µM; MIC90 [13]: > 50 µM; MIC [14]: > 50 µM; MIC [15]: 2.3 µM (≈ 0.553 µg/mL); MIC [16]: 0.15 µM (≈ 0.036 µg/mL); MIC [17]: > 50 µM

Q: What does the source list for `COc1cccc(NC(=O)c2c(NC(=O)c3cccnc3)sc3c2CCC3)c1`?
A: MIC [1]: 50 µM (≈ 19.7 µg/mL); CC50 (HepG2 [2]; Homo sapiens, HepG2): > 50 µM; MIC [3]: 12.5 µM (≈ 4.92 µg/mL); MIC90 [4]: 3.12 µM (≈ 1.23 µg/mL); MIC [5]: > 50 µM; MIC [6]: 6.25 µM (≈ 2.46 µg/mL); MIC [7]: 12.5 µM (≈ 4.92 µg/mL); MIC [8]: 12.5 µM (≈ 4.92 µg/mL); MIC [9]: 4.7 µM (≈ 1.85 µg/mL); MIC90 [10]: > 50 µM; MIC [11]: 12.5 µM (≈ 4.92 µg/mL); CC50 (HepG2 [12]; Homo sapiens, HepG2): > 50 µM; MIC90 [13]: > 50 µM; MIC [14]: 12.5 µM (≈ 4.92 µg/mL); MIC [15]: 9.4 µM (≈ 3.7 µg/mL); MIC [16]: 9.4 µM (≈ 3.7 µg/mL); MIC [17]: > 50 µM

Q: Which results are given for `CCCNC(=O)N1CCC2(CC1)CC(=O)c1cc(C)ccc1O2`?
A: inhibition at 10 µM (HepG2 [18]): 0%; Inhibition (Plasmodium berghei): 3%; IC50 (Plasmodium falciparum [19]): 3.12 µM; IC50 (Plasmodium falciparum [20]): 2.06 µM; CC50 [21]: > 50 µM; IC50 (Plasmodium falciparum [22]): 1.57 µM; Inhibition (Plasmodium falciparum [23]): 1%; CC20 (HepG2 [24]): >80 µM

Q: With `Cc1ccccc1CN1CCC(O)(c2ccc(Cl)c(C(F)(F)F)c2)CC1` as the compound, how does the MIC [1] read?
A: 0.78 µM (≈ 0.299 µg/mL)

Q: And the CC50 (HepG2 [2]; Homo sapiens, HepG2)?
A: > 50 µM

Q: And the MIC [3]?
A: 0.39 µM (≈ 0.15 µg/mL)

Q: And the MIC90 [4]?
A: 3.12 µM (≈ 1.2 µg/mL)

Q: What about the MIC [5] of the same compound?
A: 0.78 µM (≈ 0.299 µg/mL)

Q: What about the MIC [6] of the same compound?
A: 1.2 µM (≈ 0.461 µg/mL)

Q: And the MIC [7]?
A: 0.39 µM (≈ 0.15 µg/mL)

Q: And the MIC [8]?
A: 0.6 µM (≈ 0.23 µg/mL)

Q: And the MIC [9]?
A: 0.39 µM (≈ 0.15 µg/mL)

Q: What about the MIC90 [10] of the same compound?
A: 3.12 µM (≈ 1.2 µg/mL)

Q: What about the MIC [11] of the same compound?
A: 0.3 µM (≈ 0.115 µg/mL)

Q: And the CC50 (HepG2 [12]; Homo sapiens, HepG2)?
A: > 50 µM

Q: And the MIC90 [13]?
A: 12.5 µM (≈ 4.8 µg/mL)

Q: What about the MIC [14] of the same compound?
A: 0.39 µM (≈ 0.15 µg/mL)

Q: And the MIC [15]?
A: 0.6 µM (≈ 0.23 µg/mL)

Q: And the MIC [16]?
A: 0.3 µM (≈ 0.115 µg/mL)

Q: And the MIC [17]?
A: 25 µM (≈ 9.6 µg/mL)

Q: Which MIC [1] does the source give for `Cc1ccc2nc(C)c(-c3ccn(Cc4ccccc4)n3)n2c1` here?
A: 37 µM (≈ 11.2 µg/mL)

Q: And the CC50 (HepG2 [2])?
A: 28.6 µM

Q: And the CC50 (HepG2 [2]; Homo sapiens, HepG2)?
A: 36.1 µM

Q: And the MIC [3]?
A: 50 µM (≈ 15.1 µg/mL)

Q: And the MIC90 [4]?
A: 6.25 µM (≈ 1.89 µg/mL)

Q: And the MIC [5]?
A: 4.7 µM (≈ 1.42 µg/mL)

Q: What about the MIC [6] of the same compound?
A: ≥ 50 µM

Q: And the MIC [7]?
A: 19 µM (≈ 5.75 µg/mL)

Q: What about the MIC [8] of the same compound?
A: 9.4 µM (≈ 2.84 µg/mL)

Q: And the MIC [9]?
A: 50 µM (≈ 15.1 µg/mL)

Q: And the MIC90 [10]?
A: 50 µM (≈ 15.1 µg/mL)

Q: And the MIC [11]?
A: 0.78 µM (≈ 0.236 µg/mL)

Q: What about the CC50 (HepG2 [12]) of the same compound?
A: > 50 µM

Q: What about the CC50 (HepG2 [12]; Homo sapiens, HepG2) of the same compound?
A: 35.5 µM

Q: And the MIC90 [13]?
A: > 50 µM

Q: And the MIC [14]?
A: > 50 µM

Q: And the MIC [15]?
A: 12.5 µM (≈ 3.78 µg/mL)

Q: And the MIC [16]?
A: 0.78 µM (≈ 0.236 µg/mL)

Q: And the MIC [17]?
A: > 50 µM

Q: Which results are given for `CCN(CC)CCCN1CCN(C(=O)c2cccc(-c3noc(C(F)(F)F)n3)c2)CC1`?
A: inhibition at 10 µM (HepG2 [18]): 0%; Inhibition (Plasmodium berghei): 4%; IC50 (Plasmodium falciparum [19]): 0.85 µM; IC50 (Plasmodium falciparum [20]): 0.19 µM; CC50 [21]: > 50 µM; IC50 (Plasmodium falciparum [22]): 0.31 µM; Inhibition (Plasmodium falciparum [23]): 18%; CC20 (HepG2 [24]): >80 µM
